Test results from paper PMC12486850, “Dual mechanism of the OXA-23 carbapenemase inhibition by the carbapenem NA-1-157” (Antimicrobial Agents and Chemotherapy, 2025).

How the values were obtained:
[1] = molecular target: T1, OXA-23 (Acinetobacter baumannii, UniProt Q9L4P2); assay: time-resolved crystal structures ([…] min soaks), ESI-LC/MS, nitrocefin competition kinetics; format: biochemical
T1 construct: 5'-truncated (54 bp) E. coli-optimized blaOXA-23 gene

[2] = molecular target: T1, OXA-23; assay: crystal structure of the acyl-enzyme complex ([…] min soak, […] meropenem); format: binding

T1 sequence (Q9L4P2 19-273): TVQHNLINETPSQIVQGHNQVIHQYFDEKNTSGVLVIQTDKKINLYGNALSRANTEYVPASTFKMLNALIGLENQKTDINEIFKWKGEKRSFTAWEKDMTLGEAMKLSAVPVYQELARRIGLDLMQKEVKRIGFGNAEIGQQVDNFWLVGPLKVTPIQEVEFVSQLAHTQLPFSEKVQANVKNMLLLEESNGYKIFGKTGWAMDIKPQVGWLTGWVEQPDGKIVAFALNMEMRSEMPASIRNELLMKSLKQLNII

Compound | Ki [1] | crystal structure of the acyl-enzyme complex (6 min soak, 20 mM meropenem) [2]
C[C@@H](O)[C@H]1C(=O)N2C(C(=O)O)=C(S[C@@H]3CN[C@H](C(=O)N(C)C)C3)C[C@]12C [NA-1-157] | 590 ± 20 nM | 
C[C@@H](O)[C@H]1C(=O)N2C(C(=O)O)=C(S[C@@H]3CN[C@H](C(=O)N(C)C)C3)[C@H](C)[C@H]12 [meropenem] |  | In the OXA-23–meropenem acyl-enzyme complex, meropenem is covalently attached to the Ser70 side chain
